Measurements as given in patent US9464064B2, “HCV helicase inhibitors and methods of use thereof” (University of Kansas, priority 2011, dated 2016).

Biological target: T1, HCV NS3 helicase NS3h_1b(con1) (Hepatitis C virus genotype 1b, UniProt Q9WMX2)
T1 construct: truncated C-terminally His-tagged NS3 proteins lacking the N-terminal protease, called NS3h; His-tag (C); made in house
Assay: MBHA screen of NCI mechanistic set library at 20 μM (percent inhibition, compound interference)
Format: biochemical
Conditions: compounds at 20 μM; for Inh. (%) (Inhibition): calculated from Equation 1
Experimental: All molecular beacon-based helicase assays (MBHAs) were performed according to known methods (Belon & Frick (2008) supra; Belon & Frick (2009) supra). […] In each flat, black 384-well plate, 56 compounds were tested, in triplicate, along with three negative controls (DMSO only), three positive controls (500 nM dT20), and two wells with no enzyme. Fluorescence was read before ATP (F0) addition and 30 minutes after ATP was added to 1 mM (F30) using a Tecan Infinite M200 fluorescence microplate reader with excitation and emission wavelengths set to 643 and 670 nm, respectively. Percent inhibition was calculated with equation 1, and compound interference in the MBHA was calculated with equation 2.
In Equations 1 and 2, Fc0 is the fluorescence of the reactions containing the test compound before adding ATP, Fc30 is the fluorescence of the test compound reaction 30 minutes after adding ATP. F(−)0 is the average of three DMSO-only negative control reactions before adding ATP and F(−)30 is the average of three DMSO-only reactions 30 minutes after adding ATP.
To identify HCV helicase inhibitors, the MBHA was first used to screen the National Cancer Institute Developmental Therapeutics Program's mechanistic set library. In total, 827 compounds (at 20 μM) were screened using a MBHA with a DNA substrate (Table 1). Compounds were ranked by their ability to inhibit HCV helicase-catalyzed DNA unwinding as calculated from Equation 1.
Compound interference in the MBHA was evaluated by comparing the fluorescence of reactions containing each compound to the fluorescence of DMSO-only negative controls before ATP was added.

[1] = assay interference calculated with Equation 2 (fluorescence vs DMSO-only controls before ATP)
[2] = MBHA with DNA substrate, assay interference calculated with Equation 2

T1 sequence (Q9WMX2 1192-1657): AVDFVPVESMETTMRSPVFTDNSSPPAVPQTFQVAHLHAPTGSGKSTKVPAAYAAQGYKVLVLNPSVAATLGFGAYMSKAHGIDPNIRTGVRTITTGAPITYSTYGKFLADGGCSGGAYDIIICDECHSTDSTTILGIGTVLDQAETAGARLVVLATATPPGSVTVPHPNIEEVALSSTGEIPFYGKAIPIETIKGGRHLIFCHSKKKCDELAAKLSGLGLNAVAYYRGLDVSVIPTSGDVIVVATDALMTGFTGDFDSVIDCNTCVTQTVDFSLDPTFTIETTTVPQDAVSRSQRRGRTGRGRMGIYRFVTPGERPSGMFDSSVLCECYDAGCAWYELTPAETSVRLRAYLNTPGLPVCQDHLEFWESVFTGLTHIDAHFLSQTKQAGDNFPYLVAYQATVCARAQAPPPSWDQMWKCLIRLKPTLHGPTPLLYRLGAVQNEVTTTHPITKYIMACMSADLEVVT

Row | SMILES | Inh. (%) (Inhibition) (MBHA with a DNA substrate) | Int.* (Ratio) (Interference) [1] | Int.* (Ratio) (Interference) [2] | Inh. (%) (Inhibition) (MBHA with DNA substrate)
1 | O=C1C(Cl)=C(N2CCN(C3=C(Cl)C(=O)c4ccccc4C3=O)CC2)C(=O)c2ccccc21 [Compound 40341] | −6.4 | 1.09 | – | –
2 | Nc1nc(SCc2ccccc2Cl)c2ncn(C3OC(CO)C(O)C3O)c2n1 (stereo not shown) [Compound 40666] | −2.9 | 1.09 | – | –
3 | COc1ccc(/C=C/c2cc(O)cc(O[C@@H]3O[C@H](CO)[C@@H](O)[C@H](O)[C@H]3O)c2)cc1O [Compound 43321] | −28.3 | 1.07 | – | –
4 | CCN(CC)c1ccc2cc3ccc(=[N+](CC)CC)cc-3oc2c1.[Cl-] [Compound 44690] | – | – | 0.66 | 61.5
5 | COC1=C(N)C(=O)c2nc(-c3nc(C(=O)O)c(C)c(-c4ccc(OC)c(OC)c4O)c3N)ccc2C1=O [Compound 45383] | −19.1 | 1.05 | – | –
6 | CN(C)/N=N/c1nc[nH]c1C(N)=O [Compound 45388] | – | – | 0.95 | 17.5
7 | Oc1ccc2ccccc2c1N=Nc1cccc2ccccc12 [Compound 45575] | – | – | 0.97 | 18.4
8 | CN1CCN(CCCN2c3ccccc3Sc3ccc(C(F)(F)F)cc32)CC1 [Compound 46061] | – | – | 0.93 | 13.2
9 | CC(=O)O[C@]1(C(C)=O)CC[C@H]2[C@@H]3C[C@H](C)C4=CC(=O)C=C[C@]4(C)[C@@]3(F)[C@@H](O)C[C@@]21C [Compound 47438] | – | – | 1.18 | −12.2
10 | CC(C)(C)c1ccc(O)c(CN(Cc2cc(C(C)(C)C)ccc2O)C2CCCCC2)c1 [Compound 48151] | – | – | 0.98 | 2.1
11 | [Cl-].c1csc(C[N+]23CN4CN(CN(C4)C2)C3)c1 [Compound 49660] | – | – | 0.93 | 21.2
12 | CC[C@]1(O)C[C@@H]2CN(CCc3c([nH]c4ccccc34)[C@@](C(=O)OC)(c3cc4c(cc3OC)N(C)[C@H]3[C@@](O)(C(=O)OC)[C@H](OC(C)=O)[C@]5(CC)C=CCN6CC[C@]43[C@@H]65)C2)C1.O=S(=O)(O)O [Compound 49842] | 9.9 | 0.98 | – | –
13 | [Cl][Cd][Cl] [Compound 51148] | – | – | 0.94 | 53.4
14 | CN(C)[C@@H]1C(=O)C(C(N)=O)=C(O)[C@@]2(O)C(=O)C3=C(O)c4c(O)cccc4C[C@H]3C[C@@H]12 [Compound 51812] | – | – | 0.99 | −8.1
15 | C[C@@H]1C[C@H]2CC[C@H](O2)[C@H](C)C(=O)O[C@@H](C)C[C@@H]2CC[C@@H](O2)[C@@H](C)C(=O)O[C@H](C)C[C@H]2CC[C@H](O2)[C@H](C)C(=O)O[C@@H](C)C[C@@H]2CC[C@@H](O2)[C@@H](C)C(=O)O1 [Compound 52141] | – | – | 0.83 | −11.6
16 | COc1ccc(-c2cc(=O)c3c(OC)c(OC)c(OC)cc3o2)cc1 [Compound 53908] | – | – | 0.82 | 26.0
17 | Nc1nc(-c2cccs2)cs1 [Compound 54297] | −4.0 | 0.96 | – | –
18 | COc1ccc2oc(-c3ccncc3)cc(=O)c2c1 [Compound 54650] | – | – | 1.11 | 24.7
19 | O=C1/C(=C/c2cccs2)Oc2ccccc21 [Compound 56544] | – | – | 0.96 | 1.5
20 | COc1cccc(/C=N\NC(=O)C(C)SC(C)C(=O)N/N=C/c2cccc(OC)c2)c1 (stereo not shown) [Compound 56737] | – | – | 1.12 | −7.2
21 | Cc1cc2c(C(C)C)c(O)c(O)c(C=O)c2c(O)c1-c1c(C)cc2c(C(C)C)c(O)c(O)c(C=O)c2c1O [Compound 56817] | – | – | 0.90 | −2.0
22 | CO[C@@H]1[C@H](O)C[C@@H](O[C@@H]2C[C@H](Oc3cc4cc5c(c(O)c4c(O)c3C)C(=O)[C@@H](O[C@H]3C[C@@H](O[C@H]4C[C@@H](O[C@H]6C[C@](C)(O)[C@@H](OC(C)=O)[C@H](C)O6)[C@H](O)[C@@H](C)O4)[C@H](O)[C@@H](C)O3)[C@H]([C@H](OC)C(=O)[C@@H](O)[C@@H](C)O)C5)O[C@H](C)[C@@H]2OC(C)=O)O[C@@H]1C [Compound 58514] | – | – | 1.04 | 54.9
23 | CC12C(=O)OC(=O)C1(C)C1CCC2O1 (stereo not shown) [Compound 61805] | – | – | 0.95 | −0.5
24 | CC[C@@]12CCCN3CC[C@]4(c5cccc(OC)c5N(C(C)=O)[C@@H]4CC1)[C@H]32 [Compound 61811] | – | – | 0.91 | −2.8
25 | N#Cc1cn([C@@H]2O[C@H](CO)[C@@H](O)[C@H]2O)c2ncnc(N)c12 [Compound 63701] | −3.8 | 0.98 | – | –
26 | NC(=O)c1cn(C2OC(CO)C(O)C2O)c2ncnc(N)c12 (stereo not shown) [Compound 65346] | – | – | 0.92 | 0.0

The next lines start with the values.

Row | Inh. (%) (Inhibition) (MBHA with a DNA substrate) | Int.* (Ratio) (Interference) [1] | Int.* (Ratio) (Interference) [2] | Inh. (%) (Inhibition) (MBHA with DNA substrate) | SMILES
27 | – | – | 0.96 | −9.7 | CCCCCCCCCCCCCCCCOCC(O)CO (stereo not shown) [Compound 59269]
28 | – | – | 0.93 | 13.6 | O=[n+]1c2c(n([O-])c3ccccc31)-c1cccc3cccc-2c13 [Compound 60309]
29 | – | – | 0.93 | −9.1 | CC(C)C(C)C=CC(C)C1CCC2C3=CC=C4CC(O)CCC4(C)C3CCC21C (stereo not shown) [Compound 62791]
30 | – | – | 0.76 | 4.3 | CS(=O)(=O)c1nc(N)nc2nc[nH]c12 [Compound 63446]
31 | 8.3 | 0.89 | – | – | Cl.Nc1ccn([C@@H]2O[C@H](CO)[C@@H](O)[C@@H]2O)c(=O)n1 [Compound 63878]
32 | – | – | 1.11 | −0.8 | Nc1ncnc2c1ncn2[C@@H]1O[C@H](CO)C[C@H]1O [Compound 63984]
33 | −22.3 | 1.01 | – | – | CC(C)CCCCCCCCCCCCC(=O)NCC(=O)N[C@@H]1[C@@H](O)[C@H](O)[C@@H](Nc2ncnc3nc[nH]c23)O[C@H]1[C@@H](O)CO [Compound 65104]
34 | 11.3 | 1.03 | – | – | CC1OC1C(=O)C1(O)C(C)C(O)C23OC2(C(O)c2c(O)cccc2C3=O)C1O (stereo not shown) [Compound 65380]
35 | – | – | 0.96 | 14.1 | NC(=O)C#CC(N)=O [Compound 65381]
36 | – | – | 1.12 | 2.0 | OC[C@H]1O[C@@H](n2cnc3cncnc32)[C@H](O)[C@@H]1O [Compound 65423]
37 | – | – | 1.01 | −9.8 | O=C(Nc1ccc2c(c1)oc(=O)c1ccccc12)C(Cl)Cl [Compound 65937]
38 | – | – | 1.21 | 2.2 | CCCCC(/C=N/N=C(N)N)CC.Cc1cc(O)c(C(C)C)cc1S(=O)(=O)O [Compound 66300]
